Measurements from ChEMBL document CHEMBL3232996, “Synthesis and biological evaluation of novel (123)I-labeled 4-(4-iodophenyl)butanoyl-L-prolyl-(2S)-pyrrolidines for imaging prolyl oligopeptidase in vivo” (Eur J Med Chem, 2014).
pIC50, pKi: −log10 of the molar value.

Legend:
Prolyl endopeptidase [1] = biological target: Prolyl endopeptidase (Sus scrofa, UniProt P23687); experiment: Inhibition of porcine prolyl oligopeptidase using Z-Gly-Pro-AMC as substrate after 60 mins by double-reciprocal plot analysis; conditions: read-out: Ki(app)
Chain of Prolyl endopeptidase (Sus scrofa, UniProt P23687) (P23687 whole entry): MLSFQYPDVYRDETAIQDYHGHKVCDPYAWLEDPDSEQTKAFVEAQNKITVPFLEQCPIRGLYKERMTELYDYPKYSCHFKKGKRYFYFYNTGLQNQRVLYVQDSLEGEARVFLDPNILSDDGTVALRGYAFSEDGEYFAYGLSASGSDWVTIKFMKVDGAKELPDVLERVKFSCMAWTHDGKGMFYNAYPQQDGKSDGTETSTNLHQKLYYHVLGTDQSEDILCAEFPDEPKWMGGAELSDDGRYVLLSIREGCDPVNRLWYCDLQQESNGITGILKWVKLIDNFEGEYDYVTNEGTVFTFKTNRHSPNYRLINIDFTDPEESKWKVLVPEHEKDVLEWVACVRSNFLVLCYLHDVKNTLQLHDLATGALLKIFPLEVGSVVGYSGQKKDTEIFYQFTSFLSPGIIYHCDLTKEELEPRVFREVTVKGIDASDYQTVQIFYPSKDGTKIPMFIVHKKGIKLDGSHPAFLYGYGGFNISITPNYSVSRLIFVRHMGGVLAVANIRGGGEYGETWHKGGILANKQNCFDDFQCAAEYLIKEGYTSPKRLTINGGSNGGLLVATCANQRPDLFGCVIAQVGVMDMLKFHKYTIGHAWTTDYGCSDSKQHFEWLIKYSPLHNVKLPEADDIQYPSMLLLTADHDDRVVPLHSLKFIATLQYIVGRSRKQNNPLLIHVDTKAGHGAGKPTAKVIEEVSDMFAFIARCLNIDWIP

Prolyl endopeptidase [2] = biological target: Prolyl endopeptidase (Mus musculus, UniProt Q9QUR6); experiment: Competitive inhibition of mouse brain prolyl oligopeptidase; type: tissue-based
Chain of Prolyl endopeptidase (Mus musculus, UniProt Q9QUR6) (Q9QUR6 whole entry): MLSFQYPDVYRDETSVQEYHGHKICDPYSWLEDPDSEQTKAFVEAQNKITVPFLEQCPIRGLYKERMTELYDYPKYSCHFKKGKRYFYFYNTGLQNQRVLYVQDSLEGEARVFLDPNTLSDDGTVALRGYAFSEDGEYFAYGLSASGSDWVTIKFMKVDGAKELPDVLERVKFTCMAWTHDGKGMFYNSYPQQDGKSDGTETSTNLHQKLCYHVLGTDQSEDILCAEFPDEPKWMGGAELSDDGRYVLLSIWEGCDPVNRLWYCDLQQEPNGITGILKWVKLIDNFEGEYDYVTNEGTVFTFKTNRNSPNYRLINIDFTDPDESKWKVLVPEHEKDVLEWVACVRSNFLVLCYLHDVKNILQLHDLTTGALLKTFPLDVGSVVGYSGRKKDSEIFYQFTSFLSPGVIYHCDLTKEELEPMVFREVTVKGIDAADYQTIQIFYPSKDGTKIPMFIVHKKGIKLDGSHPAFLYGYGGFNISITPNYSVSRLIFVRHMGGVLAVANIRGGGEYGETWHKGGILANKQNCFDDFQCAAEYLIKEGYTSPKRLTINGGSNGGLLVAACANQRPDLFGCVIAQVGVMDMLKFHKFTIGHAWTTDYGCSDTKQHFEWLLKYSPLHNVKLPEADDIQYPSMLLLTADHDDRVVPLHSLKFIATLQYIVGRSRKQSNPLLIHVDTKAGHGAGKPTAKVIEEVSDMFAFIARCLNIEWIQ

## N#C[C@@H]1CCCN1C(=O)[C@@H]1CCCN1C(=O)CCCc1ccc(I)cc1
Prolyl endopeptidase [1]
  pKi: 8.38

## O=C([C@@H]1CCCN1C(=O)CCCc1ccc(I)cc1)N1CCCC1
Prolyl endopeptidase [1]
  pKi: 7.66

## [11CH3]Nc1ccc(CCCC(=O)N2CCC[C@H]2C(=O)N2CCCC2)cc1
Prolyl endopeptidase [2]
  pIC50: 8.51
